We go through 13 molecules from patent US11103564B2, “Compositions for the inhibition of Giardia lamblia” (INSTITUT NATIONAL DE LA RECHERCHE AGRONOMIQUE, priority 2014, dated 2021).

Read-outs that look alike come from different tables or passages of the source.

Data set [1] concerns G. lamblia trophozoites. Description: In vitro G. lamblia growth inhibition assay. It counts as cell-based, Giardia lamblia. The note with it: for IC50: KM-FCS; for inhibitory activity on G. lamblia growth: KM-FCS culture medium, without BSH.
Data set [2] relates to Giardia trophozoite cultures. Briefly: Screening of lactobacilli strain supernatants for G. lamblia growth inhibition. The class given is cell-based, Giardia lamblia. The note with it: supernatant, 24 h at 37° C., with bovine bile 0.6 g/L. How it is done: The inhibitory effect on G. lamblia growth of different lactobacilli strains was screened (cf. table 5). Bacterial supernatant was co-incubated for 24 h at 37° C. with Giardia trophozoite cultures (triplicates), with or without bovine bile (0.6 g/L). […] Table 5 indicates the corresponding internal and official references of the bacterial strains, and bibliographic references.

The test system of data set [3] is G. lamblia WB clone C6. Description: In vivo effect of BSH-47 against G. lamblia in neonatal mice. The note with it: daily gavage day 10 to 15, vs PBS. As for the experimental part:
FIG. 13: G. lamblia trophozoites count in the small intestine. Mice were challenged with the trophozoites of G. lamblia WB clone C6 (10^5 trophozoites per animal) at day 10 Animals were treated either with PBS or BSH-47 at 1 μg/ml (0.5 μg per mice), 10 μg/ml (5 μg per mice) or 100 μg/ml (50μg/mice) by daily intragastric gavage until day 15 (n=10 to 11/group). Values are mean±SEM; p<0.05.
Solutions of recombinant BSH-47 solutions (1 μg/ml, 10 μg/ml and 100 μg/ml diluted in NaHCO3 16.4%) were thawed and daily administered by intragastric gavage to neonatal mice (dose were respectively […] per mice) from day 10 to day 15 (day of sacrifice). Control animals received PBS instead of BSH.

In data set [4] the test system is G. lamblia trophozoites. Description: Effect of recombinant LjLa1 BSH on Giardia trophozoites cultures. The class given is cell-based, Giardia lamblia.
Data set [5] in a line: BSH activity on taurodeoxycholic / glycodeoxycholic LB agar. The class given is biochemical. The note with it: taurodeoxycholic (0.3%) and glycodeoxycholic (0.3%) LB agar, 48 h at 37° C.
The format of data set [6] is biochemical.
Setting [7] is: Giardia duodenalis, absence of LjLa1sn, trophozoites growth inhibition, read-out: IC50 +/− SD, with culture medium only.
The mark [8] stands for this setting: Giardia duodenalis, presence of LjLa1sn, read-out: IC50 +/− SD, with bacterial spent culture medium.
The mark [9] stands for this setting: absence of LjLa1sn, trophozoites growth inhibition, read-out: IC50 +/− SD, with culture medium only.
[10] abbreviates: presence of LjLa1sn, read-out: IC50 +/− SD, with bacterial spent culture medium.
Where [11] appears, read: 0.0001 μg/ml to 10 μg/ml, presence of bovine bile (0.06 g/L).

Regarding `C[C@H](CCC(=O)O)[C@H]1CC[C@H]2[C@@H]3[C@H](O)C[C@@H]4C[C@H](O)CC[C@]4(C)[C@H]3CC[C@]12C` [CDC, Chenodesoxycholate], the IC50 is 147 µM in data set [1] (setting [7]) and 118 µM in data set [1] (setting [8]).
Take `C[C@H](CCC(=O)NCC(=O)O)[C@H]1CC[C@H]2[C@@H]3CC[C@@H]4C[C@H](O)CC[C@]4(C)[C@H]3C[C@H](O)[C@]12C` [GDC, Glycodesoxycholate]: the IC50 was more than 400 µM in data set [1] (setting [7]) and 104 µM in data set [1] (setting [8]). In addition, the “inhibitory activity on G. lamblia growth” value in data set [1] is “no inhibitory activity”.
The matching figures for `C[C@H](CCC(=O)NCC(=O)O)[C@H]1CC[C@H]2[C@@H]3[C@H](O)C[C@@H]4C[C@H](O)CC[C@]4(C)[C@H]3CC[C@]12C` [GCDC, Glycochenodesoxycholate]: more than 400 µM, 110 µM and “no inhibitory activity”.
As for Lactobacillus acidophilus, the “inhibitory effect on G. lamblia growth” value in data set [2] is on record as “potent inhibitors”.
Take `C[C@H](CCC(=O)NCCS(=O)(=O)O)[C@H]1CC[C@H]2[C@@H]3[C@H](O)C[C@@H]4C[C@H](O)CC[C@]4(C)[C@H]3CC[C@]12C` [TCDC, Taurochenodesoxycholate]: the IC50 was more than 400 µM in data set [1] (setting [7]) and 115 µM in data set [1] (setting [8]). Moreover, in data set [1], the “inhibitory activity on G. lamblia growth” value is “no inhibitory activity”.
With Desoxycholate [DC], the IC50 is 132 µM in data set [1] (setting [9]) and 117 µM in data set [1] (setting [10]).
Consider `C[C@H](CCC(=O)NCC(=O)O)[C@H]1CC[C@H]2[C@@H]3[C@H](O)C[C@@H]4C[C@H](O)CC[C@]4(C)[C@H]3C[C@H](O)[C@]12C` [GC, Glycocholate], for which the IC50 in data set [1] (setting [7]) and in data set [1] (setting [8]) was more than 400 µM throughout.
Regarding `CC(=O)O[C@H]1C[C@@]2(C)[C@@H](C[C@@H](O)[C@H]3[C@@]4(C)CC[C@@H](O)[C@@H](C)[C@@H]4CC[C@@]32C)/C1=C(\CCC=C(C)C)C(=O)O` [FA, Fusidic acid], the IC50 in data set [1] (setting [7]) turned out to be 26 µM.
Consider `C[C@H](CCC(=O)O)[C@H]1CC[C@H]2[C@@H]3[C@H](O)C[C@@H]4C[C@H](O)CC[C@]4(C)[C@H]3C[C@H](O)[C@]12C` [C, Cholate], for which the IC50 in data set [1] (setting [9]) and in data set [1] (setting [10]) was more than 400 µM each time.
For the molecule Lactobacillus reuteri, the “inhibitory effect on G. lamblia growth” value in data set [2] is listed as “potent inhibitors”.
Turning to `C[C@H](CCC(=O)NCCS(=O)(=O)O)[C@H]1CC[C@H]2[C@@H]3CC[C@@H]4C[C@H](O)CC[C@]4(C)[C@H]3C[C@H](O)[C@]12C` [TDC, Taurodesoxycholate], in data set [1], the “inhibitory activity on G. lamblia growth” value was “no inhibitory activity”. In addition, the IC50 was more than 400 µM in data set [1] (setting [9]) and 79 µM in data set [1] (setting [10]).

B1: BSH-47: recombinant L. johnsonii La1 bile-salt hydrolase LJ1147 produced in E. coli, His-Tag purified (protein)
chain: MCTSILYSPKDNYFGRNLDYEIAYGQKVVITPRNYQLNYRHLPTQDTHYAMIGVSVVANDYPLYCDAINEKGLGIAGLNFTGPGKYFSVDESKKNVTSFELIPYLLSNCETIEDVKKLLSETNITDESFSKDLPVTTLHWLMGDKSGKSIVIESTETGLHVYDNPVNTLTNNPVFPAQVETLANFASVSPAQPKNTLVPNADINLYSRGLGTHHLPGGTDSNSRFIKASFVLAHSPKGNDEVENVTNFFHVLHSVEQAKGTDEVEDNVFEFTMYSDCMNLDKGILYFTTYDNNQINAVDMNNEDLGTSDLITYELFKDQAIKFEN
modifications: His-tag; Lactobacillus johnsonii BSH-47
notes: recombinant L. johnsonii La1 bile-salt hydrolase LJ1147 produced in E. coli, His-Tag purified
Regarding B1, in data set [3] (100 μg/ml group), the “parasite load in the small intestine” value was “significant reduction”. For the same molecule, in data set [3] (all groups: 1, 10 and 100 μg/ml), the “trophozoites load in the small intestine” value is “reduction in trophozoites load”. In addition, the “inhibitory effect on G. lamblia trophozoites” value is “strong inhibitory effects” in data set [4] (setting [11]) and “no inhibitory effect” in data set [4] (without bovine bile). Moreover, the “effect on Giardia trophozoites cultures” value in data set [4] (0.96 U, with bovine bile (0.06 g/L)) is “exhibits an inhibiting effect”. Further, the “substrate specificity on agar” value in data set [5] is “taurospecific”. The Specific activity in data set [6] (glycine release) is 0.066 μmole of glycine/5 min at 37°; in data set [6] (taurine release) it was 0.717 μmole taurine/5 min at 37° C./.

B2: BSH-56: recombinant L. johnsonii La1 bile-salt hydrolase LJ0056 produced as BSH-47 (protein)
chain: MCTGLRFTDDQGNLYFGRNLDVGQDYGEGVIITPRNYPLPYKFLDNTTTKKAVIGMGIVVDGYPSYFDCYNEDGLGIAGLNFPHFAKFSDGPIDGKINLASYEIMLWVTQNFTHVSEVKEALKNVNLVNEAINTSFAVAPLHWIISDSDEAIIVEVSKQYGMKVFDDKVGVLTNSPDFNWHLTNLGNYTGLNPHDATAQSWNGQKVAPWGVGTGSLGLPGDSIPADRFVKAAYLNVNYPTAKGEKANVAKFFNILKSVAMIKGSVVNDQGKDEYTVYTACYSSGSKTYYCNFEDDFELKTYKLDDHTMNSTSLVTY
modifications: Lactobacillus johnsonii BSH-56
For the molecule B2, the figures for the “inhibitory effect on G. lamblia trophozoites” value in data set [4] (setting [11]) and in data set [4] (without bovine bile) were “strong inhibitory effects” and “no inhibitory effect”, respectively. In addition, the Specific activity in data set [6] (glycine release) was 0.536 μmole of glycine/5 min at 37°; in data set [6] (taurine release), 2.604 μmole taurine/5 min at 37° C./.
